We go through 46 compounds from PubChem BioAssay (NCI).

This assay has as its system MDA-MB-468 breast. Kind of assay: inhibition of tumour cell growth, NCI panel, 48 h.

Where “and” joins values, the source holds several entries; their conditions need not be identical. Equal entries are not always repeated.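 Assay format: 96-well plates, 48-hour exposure. The concentration for 50% growth inhibition is given as GI50. Definition used: TGI = concentration required for complete inhibition of growth.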 Some results are limits rather than exact numbers.

Regarding `CCc1cccc(C)c1NC(=O)c1sc2nc3c(cc2c1N)C(=O)CCC3`, the GI50 is 0.377 µM and the TGI amounted to 60.5 µM.

Regarding `O=C(CCCCCCN1CC(=O)N2[C@@H](c3ccc(Cl)c(Cl)c3)c3[nH]c4ccccc4c3C[C@H]2C1=O)NO`, the GI50 was 1.89 µM and the TGI amounted to 7.42 µM.

`CSc1nc2sc3c(c2c(=O)n1-c1ccc(C(C)C)cc1)CCC(=O)C3`: the GI50 was 2.16 µM and the TGI was 5.99 µM.

`C/C(=C\c1cnc(C)s1)[C@@H]1C[C@@H]2O[C@@H]2CCC[C@H](C)[C@H](O)[C@@H](C)C(=O)C(C)(C)[C@@H](O)CC(=O)O1`: the GI50 was under 0.01 µM and the TGI was found to be 1.81 µM.

`O=[N+]([O-])c1ccc(N2CCOCC2)c2c1no[n+]2[O-]`: the GI50 was 0.769 µM and the TGI came out at 2.83 µM.

Turning to `O=C(N/N=C/c1ccco1)c1[nH]c2ccc(Br)cc2c1-c1ccccc1`, the GI50 was 0.22 µM and the TGI was determined as 2.4 µM.

In the case of `C[C@]12CC[C@@H]3c4cc(OC(F)F)c(OS(N)(=O)=O)cc4CC[C@H]3[C@@H]1CC[C@@H]2O`, the GI50 is 0.244 µM and the TGI amounted to 1.42 µM.

For `C=CCN1CC(=O)N2[C@@H](Cc3ccc(O)cc3F)C(=O)N(Cc3cccc(N4CC(N5CCN(CC)CC5)C4)n3)C[C@@H]2N1C(=O)NCc1ccccc1`, the GI50 is 0.232 µM and the TGI is over 100 µM.

Take `Oc1ccc(C(c2ccc(O)cc2)c2ccc(Br)cn2)cc1`: the GI50 was 0.234 µM and the TGI is 0.637 µM.

Regarding `NS(=O)(=O)c1ccc(-c2cc3ccncc3cc2OCc2ccccc2)cc1`, the GI50 was 13.4 µM and the TGI was over 25 µM.

As for `COc1cc2nc(-c3cc(F)ccc3O)nc(N[C@@H]3CNC[C@H]3C(C)(C)O)c2cc1OC`, the GI50 is 1.64 µM and the TGI is 3.12 µM.

Take `CN(CCNCc1ccccn1)CCNCc1ccccn1`: the GI50 was 2.71 µM and the TGI came to 7.93 µM.

On to `C(=N/N(Cc1ccccc1)Cc1ccccc1)/c1ccccc1`, for which the GI50 was over 100 µM and the TGI was over 100 µM.

`CC1=C(CC(=O)c2cccc([N+](=O)[O-])c2)C(=O)c2ccccc2C1=O`: the GI50 was 1.77 µM and the TGI worked out at 5.9 µM.

In the case of `O=C(CC1(O)C(=O)N(Cc2ccccc2)c2ccccc21)c1ccc(C(=O)NCC2CCC3(CC2)OOC2(CCCCC2)OO3)cc1` (configuration not stated), the GI50 was 1.49 µM and the TGI was found to be 3.31 µM.

In the case of `CCN(CC)CCCCCCNc1cc(OC)cc2cccnc12`, the GI50 is 1.93 µM and the TGI was found to be 3.8 µM.

Regarding `C#CCNC(=O)[C@H](CC)[C@H]1CC[C@H](C)[C@H]([C@@H](C)[C@H](O)[C@H](C)C(=O)[C@H](CC)C2O[C@]3(C=CC(=O)[C@]4(CC[C@@](C)([C@H]5CC[C@](O)(CC)[C@H](C)O5)O4)O3)[C@H](C)C[C@@H]2C)O1` (some centres not stated), the GI50 was 2.51 µM and the TGI came out at 21.5 µM.

Regarding `COC1=C(OC)C(=O)C(SC/C=C(\C)CCCC(C)CCCC(C)CCCC(C)C)=CC1=O` (configuration not stated), the GI50 was 3.33 µM and the TGI is over 100 µM.

In the case of `Oc1cccc2ccc(N/N=C/c3cc(CN4CCOCC4)c(O)c4ncccc34)nc12`, the GI50 is 0.0302 µM and the TGI was found to be 0.289 µM.

`CC(=O)NCc1cccc(C#Cc2cncnc2Nc2ccc(OCc3cccc(F)c3)c(Cl)c2)c1`: the GI50 was 1.29 µM and the TGI was found to be 6.29 µM.

For `Nc1nc(Nc2ccccc2SSc2ccccc2Nc2nc(N)nc(C(Cl)(Cl)Cl)n2)nc(C(Cl)(Cl)Cl)n1`, the GI50 was 4.7 µM and the TGI came to 29.1 µM.

As to `Cc1ccc(-c2nc([P+](c3ccccc3)(c3ccccc3)c3ccccc3)c(S(=O)(=O)c3ccc(C)cc3)o2)cc1`, the GI50 was 1.03 µM and the TGI came out at 2.6 µM.

In the case of `CC1OC(OC2C(O)CC(OC3C(O)CC(OC4CCC5(C)C(CCC6C5CC(O)C5(C)C(C7=CC(=O)OC7)CCC65O)C4)OC3C)OC2C)CC(O)C1O` (configuration not stated), the GI50 is 0.159 µM and the TGI came out at 0.364 µM.

In the case of `CCCCCO/N=C\c1c2c(O)c3c(O)c(C)c4c(c3c1O)C(=O)C(C)(O/C=C\C(OC)C(C)C(OC(C)=O)C(C)C(O)C(C)C(O)C(C)/C=C\C=C(\C)C(=O)N2)O4` (configuration not stated), the GI50 was 2.17 µM and the TGI worked out at 6.33 µM.

Take `CC(C)(O)CNc1nc(Nc2ccnc(C(F)(F)F)c2)nc(-c2cccc(C(F)(F)F)n2)n1`: the GI50 is 18 µM and the TGI turned out to be 38.5 µM.

As to `N#CC1=C(/N=C/c2ccccc2)Oc2c(ccc3ccccc23)C1c1ccccc1` (configuration not stated), the GI50 was 0.247 µM and the TGI amounted to 0.741 µM.

In the case of `O=C(Nc1cccc(-n2cc(-c3ccncc3)c(-c3cc(O)cc(Cl)c3)n2)c1)c1cc(C(F)(F)F)cc(C(F)(F)F)c1`, the GI50 is 3.1 µM and the TGI is over 100 µM.

`COc1ccc(C(=O)c2c(N)c(C#N)cn2-c2cccc(OC)c2)cc1`: the GI50 is 1.12 µM and the TGI amounted to 4.23 µM.

Take `COC(=O)c1cncc(/C=C/c2c(C)cc(O)cc2C)c1`: the GI50 was 4.32 µM and the TGI was 12.6 µM.

In the case of `Cn1cc(C2=C(c3cccc(OC[C@@H](O)CO)c3)C(=O)NC2=O)c2ccccc21`, the GI50 is over 25 µM and the TGI was over 25 µM.

As for `COc1cc(/C=C/C(=O)c2cccc(-n3cc(-c4ccc(Cl)cc4)[nH]c3=O)c2)cc(OC)c1OC`, the GI50 is 12.8 µM and the TGI was determined as 34.7 µM.

In the case of `Cc1cc(N(CCCNc2ccnc3cc(Cl)ccc23)Cc2ccco2)nc(N2CCN(C)CC2)n1`, the GI50 was 1.81 µM and the TGI is 4.32 µM.

On to `O=C1OC(C(O)CO)C(O)=C1O` (configuration not stated), for which the GI50 is 1820 µM and 2020 µM; the TGI was 3760 µM and 4400 µM.

Consider `c1ccc2cc(-c3n(Cc4ccc5ccccc5n4)c4ccccc4[n+]3Cc3ccc4ccccc4n3)ccc2c1`, for which the GI50 was 0.116 µM and the TGI is 0.529 µM.

As for `c1ccc2c(c1)Nc1ccncc1S2`, the GI50 is 18.9 µM and the TGI came to 50.8 µM.

Regarding `CCCCCCNC(=O)Oc1ccc(/C(=C(\C)c2ccc(Cl)cc2)c2ccc(OCCN3CCCCC3)cc2)cc1`, the GI50 is 3.46 µM and the TGI came out at 8.7 µM.

On to `COc1ccc(N(CC(=O)NCCC[Te]c2ccccc2)C(=O)CNC(=O)OC(C)(C)C)cc1`, for which the GI50 is 3.2 µM and the TGI is 10.9 µM.

Regarding `N#CCCN1C/C(=C/c2ccc(Cl)cc2)C(=O)/C(=C/c2ccc(Cl)cc2)C1`, the GI50 was 1 µM and the TGI amounted to 2.89 µM.

Turning to `Cc1cc(C#Cc2ccc(C(C)(C)C)cc2)ccc1-n1c(/C=C/c2ccc(O)cc2O)nc2ccccc2c1=O`, the GI50 is 2.2 µM and the TGI amounted to 6.5 µM.

Consider `COc1ccc(-c2nc(/C=C3\SC(=NCc4ccccc4)NC3=O)c3ccccn23)cc1`, for which the GI50 is 1.9 µM and the TGI is 4.39 µM.

`COC(=O)[C@H]1CCCN1C(=O)[C@H]1CCCN1C(=O)[C@@H](Cc1c[nH]c2ccccc12)NC(=S)Nc1cc(C(F)(F)F)cc(C(F)(F)F)c1`: the GI50 was 2.26 µM and the TGI stood at 5.9 µM.

Turning to `COc1cc2c(cc1OCCCCN1CCN(C(=S)SCCC(C#N)(c3ccccc3)c3ccccc3)CC1)N=C[C@@H]1CCCN1C2=O`, the GI50 was 0.499 µM and the TGI was 31.4 µM.

With `COc1ccc(/C=C(\C#N)n2nnc3c(F)cccc32)cc1`, the GI50 was 1.58 µM and the TGI came out at 6.67 µM.

Regarding `Oc1c(I)cc(I)c2cccnc12`, the GI50 was 7.01 µM and the TGI came to 30.3 µM.

On to `O=C(/C=C/c1cccc(O)c1)c1cccc(-n2cc(-c3ccccc3)[nH]c2=O)c1`, for which the GI50 is 2.46 µM and the TGI was 7.7 µM.

For `Cc1cccc2c3c(sc12)C(c1ccc(Cl)cc1)C(C#N)=C(N)O3` (configuration not stated), the GI50 is 0.277 µM and the TGI is 3.75 µM.
